Test results as given in patent US20250223262A1, “[…] OF […] REDUCED HERG ACTIVITY AND MOP BINDING” (Heinrich-Heine-Universität Düsseldorf, priority 2022, published 2025).

Key:
[1] = Intraperitoneal glucose tolerance test and plasma insulin (in vivo); set-up: species or system mice; settings: for effect on blood glucose concentration compared to control: glucose tolerance test in vivo
Method: (A) n=8 mice for control and n=7 mice for Kom56, (D) n=8 mice each. (B,E) Blood glucose concentrations of mice during i.p. glucose tolerance tests with 1.5 mg/g BW glucose with or without i.p. compound administration. n=8 mice each. (C,F) AUC0-120min calculation of blood glucose concentrations of B,E. Statistical testing: (A,D) two-way ANOVA followed by Sidak's multiple comparison test. (B,C,E,F) unpaired two-sided Student's t-test. All values are shown with mean±SEM, except for glucose tolerance tests (B,E), in which all values are mean±SD.
Further, glucose tolerance tests (in vivo) were performed, if the corresponding in vitro assays were “positive”.
Glucose tolerance tests for the compounds were performed like in paragraph [0209].

μ-opioid (MOP) receptor = μ-opioid (MOP) receptor (Homo sapiens, UniProt P35372); experiment: MOP receptor inhibition, SafetyScreen44 Panel; format: binding; settings: test concentration 1.0 10^−5 M
μ-opioid (MOP) receptor, sequence (P35372 whole entry): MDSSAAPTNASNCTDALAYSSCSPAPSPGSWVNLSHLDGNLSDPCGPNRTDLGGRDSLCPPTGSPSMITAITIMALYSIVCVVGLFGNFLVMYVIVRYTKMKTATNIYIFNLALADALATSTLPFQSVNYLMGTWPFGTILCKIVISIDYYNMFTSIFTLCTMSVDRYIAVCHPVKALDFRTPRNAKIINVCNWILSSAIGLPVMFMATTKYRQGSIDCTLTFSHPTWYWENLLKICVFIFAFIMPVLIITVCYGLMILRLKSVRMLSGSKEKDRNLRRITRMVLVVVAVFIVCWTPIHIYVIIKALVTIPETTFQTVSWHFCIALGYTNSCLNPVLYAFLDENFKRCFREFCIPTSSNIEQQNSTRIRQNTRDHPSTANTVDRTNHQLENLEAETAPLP

mouse pancreatic islets [2] = experiment: Islet cell death induced by oxidative stress (H2O2), flow cytometry; format: cell-based; settings: 150 μM H2O2, 1 and 0.1 μM Kom56, 24 h, FIG. 6
Method: (A) Healthy control, (B) pancreatic islets incubated with 150 μM H2O2, (C) 150 μM H2O2 plus 1 μM Kom56, and (D) 150 μM H2O2 plus 0.1 μM Kom56. Analyzed by flow cytometry. Pancreatic islets were dissociated using trypsin and stained with Fixable Viability Stain 660 (FVS660). FVS660+=dead cells, FVS660-=living cells, values are shown in %.

mouse pancreatic islets [3] = experiment: Insulin secretion assay on isolated pancreatic islets (in vitro); format: cell-based; settings: low (2 mM) and high glucose (20 mM), FIG. 1
Method: Statistical testing: two-way ANOVA followed by Sidak's multiple comparison test. All values are shown with mean±SEM.
Further, insulin secretion assays (in vitro) were performed.
Insulin secretion assays for the compounds were performed like in paragraph [0208].

[4] = Oral glucose tolerance test and plasma insulin (in vivo); settings: mice, FIG. 3
Method: (B) Blood glucose concentrations of mice during oral glucose tolerance test with 1.5 mg/g BW glucose with or without p.o. compound administration. n=7 mice for control and n=8 mice for Kom56. (C) AUC0-120min calculation of blood glucose concentrations of B. Statistical testing: (A) two-way ANOVA followed by Sidak's multiple comparison test. (B,C) unpaired two-sided Student's t-test. All values are shown with mean±SEM, except for glucose tolerance test (B), in which all values are mean±SD.

[5] = Von Frey monofilament paw withdrawal test; format: in vivo; settings: mice, i.p. administration, paw withdrawal thresholds versus PBS, FIG. 5
Source text: (A) Force that is needed to reach a 50% threshold, and (B) force that is needed to reach a 75% threshold in paw withdrawal. n=6 mice each. Statistical testing: (A,B) unpaired two-sided Student's t-test. All values are shown with mean±SEM.

[6] = molecular target: T1, potassium voltage-gated channel subfamily H member 2 (hERG) (Homo sapiens, UniProt Q12809); experiment: hERG channel binding assay ([3H] Dofetilide); settings: SafetyScreen44 Panel, test concentration 1.0 10^−5 M
T1 construct: expressed in transfected cells; host or cells: HEK-293
T1 sequence (Q12809 whole entry): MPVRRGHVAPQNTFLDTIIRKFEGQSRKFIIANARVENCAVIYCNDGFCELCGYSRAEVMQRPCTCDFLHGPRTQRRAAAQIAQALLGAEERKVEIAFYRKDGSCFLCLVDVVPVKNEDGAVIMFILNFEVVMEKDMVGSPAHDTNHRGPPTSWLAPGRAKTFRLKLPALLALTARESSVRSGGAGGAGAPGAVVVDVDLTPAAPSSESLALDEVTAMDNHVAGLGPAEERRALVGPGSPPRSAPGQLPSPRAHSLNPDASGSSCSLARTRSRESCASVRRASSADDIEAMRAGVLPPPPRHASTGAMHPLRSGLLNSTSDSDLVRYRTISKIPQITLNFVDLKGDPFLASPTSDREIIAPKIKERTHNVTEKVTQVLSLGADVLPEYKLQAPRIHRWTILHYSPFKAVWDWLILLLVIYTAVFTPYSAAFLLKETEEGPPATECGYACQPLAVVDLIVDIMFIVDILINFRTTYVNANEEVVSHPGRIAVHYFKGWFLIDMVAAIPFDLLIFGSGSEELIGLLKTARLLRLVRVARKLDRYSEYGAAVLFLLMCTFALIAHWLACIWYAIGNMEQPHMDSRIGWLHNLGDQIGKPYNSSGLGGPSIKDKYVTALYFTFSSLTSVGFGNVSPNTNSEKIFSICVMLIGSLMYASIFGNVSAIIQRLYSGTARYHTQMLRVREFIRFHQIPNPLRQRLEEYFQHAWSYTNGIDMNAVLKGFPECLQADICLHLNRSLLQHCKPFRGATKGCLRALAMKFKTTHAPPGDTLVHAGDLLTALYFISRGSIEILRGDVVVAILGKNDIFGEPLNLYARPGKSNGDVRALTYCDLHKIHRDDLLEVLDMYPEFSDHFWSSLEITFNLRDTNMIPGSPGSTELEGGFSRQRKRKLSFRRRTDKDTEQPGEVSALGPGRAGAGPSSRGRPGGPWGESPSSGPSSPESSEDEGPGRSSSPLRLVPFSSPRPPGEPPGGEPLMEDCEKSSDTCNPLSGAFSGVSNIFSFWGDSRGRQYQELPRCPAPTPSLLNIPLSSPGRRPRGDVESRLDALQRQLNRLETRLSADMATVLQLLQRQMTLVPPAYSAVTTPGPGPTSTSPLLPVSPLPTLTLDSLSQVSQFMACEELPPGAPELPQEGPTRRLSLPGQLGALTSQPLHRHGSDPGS
Method: (§1) For the hERG channel binding assay, compound binding was calculated as % inhibition of the binding of a radioactively labeled ligand that is specific for the target (i.e., [3H] Dofetilide). HEK-293 cells (human embryonic kidney cells) were used for these binding assays. The compounds were tested at a concentration of 10 μM and 2 repetitions were conducted for each compound.

mouse pancreatic islets [7] = experiment: Streptozotocin-induced islet cell death; format: cell-based; settings: 2 mM streptozotocin, 1 μM Kom56, 24 h, FIG. 7
Source text: Blue (Hoechst), nuclei; red (ethidium homodimer1), dead cells; green (calcein), viable cells. (B) Area of dead cells in mouse islets treated as described in A. n=4 islet batches each with 11-14 islets per batch for each group. Statistical testing: (B) one-way ANOVA followed by Tukey's multiple comparison test. All values are shown with mean±SEM. (A) Scale bars, 50 μm.

[8] = molecular target: T2, hERG (potassium voltage-gated channel subfamily H member 2) (Homo sapiens, UniProt Q12809); experiment: hERG channel binding assay ([3H] Dofetilide); settings: human, HEK-293 cells (hERG channel binding assay), probe [3H] Dofetilide; 10 μM, [3H] Dofetilide, HEK-293 cells, 2 repetitions; read-out: hERG inhibition (% inhibition of the binding of a ligand specific for the target)
T2 construct: expressed in transfected cells; host or cells: HEK-293
T2 sequence (Q12809 whole entry): as above
Method: as §1

[9] = test system: SafetyScreen44™ Panel with all 44 targets; experiment: SafetyScreen44 Panel toxicological test; settings: test concentration 1.0 10^−5 M
Method: Inhibition of potassium voltage-gated channel subfamily H member 2 (hERG) of the compounds was measured as in the SafetyScreen44™ Panel (see Example 3). The hERG channel binding assay is part of the SafetyScreen44™ Panel, but can also be conducted solely. The entire SafetyScreen44™ Panel with all 44 targets was just conducted for the three compounds as shown in [0206], for the other molecules just the hERG inhibition was measured.

| Molecule | effect on blood glucose concentration compared to control [1] | hERG inhibition [%] [6] [%] | toxicology (hits with over 50% inhibition) [9] | inhibition at 10 µM (μ-opioid (MOP) receptor) [%] | also measured |
| --- | --- | --- | --- | --- | --- |
| 4-[(1S,9S)-4-methoxy-17-methyl-17-azatetracyclo[7.5.3.0^1,^10,0^2,^7]heptadeca-2(7),3,5-trien-5-yl]-1-methylpiperazin-2-one [Compound 36] | slightly positive effect |  |  |  |  |
| COc1cc2c(cc1NC(=O)c1cncn1C)C[C@H]1C3CCCC[C@@]23CCN1C (stereo partly drawn) [Compound 7, N-[(1S,9S)-4-methoxy-17-methyl-17-azatetracyclo[7.5.3.0^1,^10,0^2,^7]heptadeca-2(7),3,5-trien-5-yl]-1-methyl-1H-imidazole-5-carboxamide] | significant effect | 7.9 |  |  | MOP inhibition [%] (μ-opioid (MOP) receptor): 33.7%; plasma insulin concentrations ([1]; mice, 30 min after i.p. administration together with glucose, FIG. 2): increases plasma insulin concentrations; glucose tolerance ([1]; mice, i.p. glucose tolerance test, 1.5 mg/g BW glucose, i.p. compound, FIG. 2): improves glucose tolerance; protection from cell death induced by oxidative stress (mouse pancreatic islets [2]): protects mouse pancreatic islets from cell death induced by oxidative stress; glucose-stimulated insulin secretion from mouse pancreatic islets (mouse pancreatic islets [3]): increases the glucose-stimulated insulin secretion; plasma insulin concentrations ([4]; 30 min after p.o. administration together with glucose): increases plasma insulin concentrations; glucose tolerance ([4]; oral glucose tolerance test, 1.5 mg/g BW glucose, p.o. compound): improves glucose tolerance; touch sensitivity during mechanical stimulation with Von Frey monofilaments [5]: reduces touch sensitivity; protection from streptozotocin-induced cell death (mouse pancreatic islets [7]): protects mouse pancreatic islets from streptozotocin-induced cell death |
| COc1cc2c(cc1N1CC(N(C)C)C1)C[C@H]1C3CCCC[C@@]23CCN1C (stereo partly drawn) [Compound 35, 1-[(1S,9S)-4-methoxy-17-methyl-17-azatetracyclo[7.5.3.0^1,^10,0^2,^7]heptadeca-2(7),3,5-trien-5-yl]-N,N-dimethylazetidin-3-amine] | slightly positive effect |  |  |  | inhibition at 10 µM [8]: < 15% |
| COc1ccc2c(c1)[C@]13CCCC[C@@H]1[C@H](C2)N(C)CC3 [DXM, dextromethorphan] |  | 20.9 | 6 | 85 |  |
| Br.Br.COc1cc2c(cc1-n1ccnc1)C[C@H]1[C@H]3CCCC[C@@]23CCN1C [DXM-2, (9S, 13S, 14S)-2-(1H-Imidazol-1-yl)-3-methoxy-17-methyl morphinan dihydrobromide] |  | 51.8 | 7 | 83.6 |  |
